What is called IC50 is the concentration that inhibits the measured activity by half.

For this experiment, the target named is T1, tubulin (Sus scrofa, UniProt P02550+P02554).
T1 construct: purified porcine tubulin; with alpha-tubulin (alpha/beta heterodimer)
Description: fluorescence colchicine competition assay; the IC50 is from the in vitro tubulin polymerization assay. Format: biochemical.

Consider `COc1cc(OC)cc(N2CCN(C(=O)c3n[nH]nc3-c3ccccc3Cl)CC2)c1` [7p], for which the IC50 was found to be 2.06 µM.

For the origin of these results see paper PMC5719359 (Scientific Reports, 2017).
